Measurements: publication PMC10698503, “Phosphatase specificity principles uncovered by MRBLE:Dephos and global substrate identification” (Molecular Systems Biology, 2023)
Non-standard residues stand in square brackets, D forms with d. No end group written: not given here. pT = C[C@@H](OP(=O)(O)O)[C@H](N)C(=O)O

How the values were obtained:
PP1γ [1] = target: T1, PP1γ (Homo sapiens, UniProt P36873); experiment: MRBLE:Pep concentration-dependent PP1 binding to bead-bound RVxF peptides; conditions: bead-bound peptide, PP1 0-2,000 nM with anti-PP1 and Alexa 647 secondary antibody, 24 h at 4°C, 50 mM Tris pH 7.5, 150 mM NaCl, 0.1% TWEEN 20; median and SD across experimental replicates (n = 3); read-out: Kd, MRBLE-pep (Langmuir isotherm fit)
T1 construct: His; made in house; host or cells: E. coli BL21(DE3)
T1 sequence (P36873 whole entry): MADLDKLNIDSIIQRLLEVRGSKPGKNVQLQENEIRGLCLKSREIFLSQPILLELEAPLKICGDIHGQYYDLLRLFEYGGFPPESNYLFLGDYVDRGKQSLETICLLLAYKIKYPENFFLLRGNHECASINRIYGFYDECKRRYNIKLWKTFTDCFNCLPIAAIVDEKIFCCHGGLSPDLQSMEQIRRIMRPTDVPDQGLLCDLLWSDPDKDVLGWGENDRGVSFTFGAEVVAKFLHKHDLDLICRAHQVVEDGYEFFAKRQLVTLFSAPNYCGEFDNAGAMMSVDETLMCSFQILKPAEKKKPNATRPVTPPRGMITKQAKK
Description: After incubating bead‐bound peptide libraries with PP1, an unlabeled anti‐PP1 primary antibody, and an Alexa 647‐labeled secondary antibody, we washed beads and imaged again in both lanthanide and fluorescence channels to identify peptides and quantify the amount of PP1 bound (Fig 5A). Repeating these experiments over eight different PP1 concentrations enabled acquisition of concentration‐dependent binding curves; fitting the mean intensity of all beads with a given code at different concentrations of PP1γ and fitting to a Langmuir isotherm made it possible to quantify absolute affinities (Figs 5B and Appendix Fig S11).
PP1 concentration‐dependent binding to peptides on MRBLEs was done as described previously (Hein et al, [2021a]). In short, ~ 700 beads per code were mixed in and blocked in 700 μL PBS‐T with 5% BSA. PP1 (2 μM) was preincubated in binding buffer (50 mM Tris pH = 7.5, 150 mM NaCl, and 0.1% TWEEN 20) with 1 μM primary (a‐PPP1CC rabbit polyclonal, Bethyl A300‐906A) and 1 μM goat anti‐rabbit IgG Alexa Fluor 647 (Thermo Fischer, A‐21245). […]
We then computed the mean y max value across all of these peptides and refit concentration‐dependent binding curves for all peptide sequences to the Langmuir isotherm equation using this experimentally determined y max value for all peptide sequences and fitting only the K d term. […]

PP1γ [2] = target: T1, PP1γ; experiment: ITC of RVxF model peptides with PP1γ; type: binding; conditions: peptide ~450 μM titrated into PP1γ ~35 μM, 25°C, 50 mM sodium phosphate, 150 mM NaCl, 0.5 mM TCEP, pH 7.5, single-site model
Description: Prior to ITC experiments, both the protein and the peptides were extensively dialyzed against 50 mM sodium phosphate, 150 mM NaCl, and 0.5 mM TCEP, pH 7.5. All ITC experiments were performed on an Auto‐iTC200 instrument (Microcal, Malvern Instruments Ltd.) at 25°C. Both peptide and PP1γ concentrations were determined using a spectrometer by measuring the absorbance at 280 nm and applying values for the extinction coefficients computed from the corresponding sequences by the ProtParam program (http://web.expasy.org/protparam/). The peptides at approximately 450 μM concentration were loaded into the syringe and titrated into the calorimetric cell containing the PP1γ at ~ 35 μM. The reference cell was filled with distilled water. In all assays, the titration sequence consisted of a single 0.4 μl injection followed by 19 injections, 2 μl each, with 150 s spacing between injections to ensure that the thermal power returns to the baseline before the next injection. The stirring speed was 750 rpm. Control experiments with the peptides injected in the sample cell filled with buffer were carried out under the same experimental conditions. […] The heats per injection normalized per mole of injectant versus the molar ratio [peptide]/[PP1γ] were fitted to a single‐site model. Data were analyzed with MicroCal PEAQ‐ITC (version 1.1.0.1262) analysis software (Malvern Instruments Ltd.).

PP2A‐B55α = experiment: Phosphate release assay (PiColorLock / malachite green) with PP2A-B55; type: biochemical, human; conditions: B55 WT, peptide 120 μM, 80 ng phosphatase, 20 min 30°C
Description: PP2A‐B55α holoenzymes were purified from HeLa cells stably expressing FLAG‐tagged B55α as previously described (Kruse et al, [2020]).
In vitro phosphatase assays were performed with E. coli–expressed PP1γ or PP2A‐B55α purified from HeLa cell (ATCC, RRID CVCL_0030) extracts as described previously. […] The PiColorLock inorganic phosphate detection kit (abcam) was used to detect the amount of phosphate released from the phosphorylated peptides.

Venus-B55 = experiment: Affinity purification (pulldown) of YFP/Venus-B55 from mitotic cells, label-free LC-MS/MS; type: binding, human
From the text: (§1) We defined interactomes of PP1γ and B55α during mitosis using affinity purification of YFP‐tagged subunits and also proximity‐dependent ligation using miniTurbo to capture interactions at mitotic exit (Appendix Fig S8) (Branon et al, [2018]; Sears et al, [2019]). […] These identified proteins can constitute both regulators and substrates. […] To understand how these protein interactions might shape dephosphorylation, we first aimed at generating interactome networks and overlay regulated sites. We integrated interactomes and information from the STRING database (Szklarczyk et al, [2023]) with our regulated phosphorylation sites to generate a network of complexes and dephosphorylation sites (Fig 4C and Appendix Fig S9A). For PP1, we also integrated information on known and predicted RVxF motifs (Smith et al, [2019]). […] As an example, CASC5 (KNL1) could scaffold PP1 dephosphorylation of CENPC S261, a phosphorylation site in a nuclear localization sequence. In agreement with previous work, PP2A‐B55 regulated dephosphorylation of several nucleoporins at mitotic exit consistent with Nup153 and TPR being present in the interactomes (Cundell et al, [2016]).
(§2) PP1 and B55 cDNAs were cloned into modified versions of pcDNA5/FRT/TO (Invitrogen) to make N‐terminal fusions to YFP, BioID, or TurboID. Stable cell lines were generated into HeLa/FRT/TRex cells (kind gift from S. Taylor), and for YFP affinity, purification cells were synchronized with thymidine and released into nocodazole‐containing media to arrest them in mitosis. Cells were resuspended in lysis buffer (50 mM NaCl, 50 mM Tris 7,4, 1 mM EDTA, 0.1% NP40, 1 mM DTT, and protease inhibitor cocktail), and following sonication, the lysate was clarified by centrifugation. Cell lysate was incubated with GFP‐Trap beads (Chromotek) for 1 h, washed 3 × 1 ml with lysis buffer, and resuspended in SDS–PAGE loading buffer.
(§3) The Q‐Exactive Plus was set to perform an Orbitrap MS1 scan (R = 70 K; AGC target = 1e6) from 350 to 1,500 m/z, followed by HCD MS2 spectra on the 10 most abundant precursor ions detected by Orbitrap scanning (R = 17.5 K; AGC target = 1e5; max ion time = 50 ms) before repeating the cycle. Precursor ions were isolated for HCD by quadrupole isolation at width = 1 m/z and HCD fragmentation at 26 normalized collision energy (NCE). Charge state 2, 3, and 4 ions were selected for MS2. Precursor ions were added to a dynamic exclusion list ± 20 ppm for 15 s. […] Static modifications included carbamidomethylcysteine and variable modifications included oxidized methionine. […] Missing values were imputed from a normal distribution in Perseus to enable statistical analysis and visualization by volcano plot (Tyanova et al, [2016]). Statistical analysis was carried out in Perseus by two‐tailed Student's t‐test.

Venus-PP1 = experiment: Affinity purification (pulldown) of YFP/Venus-PP1 from mitotic cells, label-free LC-MS/MS; type: binding, human
From the text: as §1, §2, §3

AKNSRVTFSEDDEII
Kd (PP1γ [1]): 3400 ± 700 nM

AKNSRVTFSEDDEIW
Kd (PP1γ [2]): 190 ± 10 nM

INCENP WT: phosphorylated INCENP 53-67 peptide (T59), wild type (PELMPK[pT]PSQKNRRK; UniProt Q9NQS7 53-67, looked up, fragment)
phosphate released from peptide by PP2A-B55 (in vitro dephosphorylation assay, Fig 3B) (PP2A‐B55α; 50 mM Tris pH 7.4, 1 mM MnCl2, 150 mM NaCl, technical repeat 1): 0,806
phosphate released from peptide by PP2A-B55 (in vitro dephosphorylation assay, Fig 3B) (PP2A‐B55α; technical repeat 2): 0,858
phosphate released from peptide by PP2A-B55 (in vitro dephosphorylation assay, Fig 3B) (PP2A‐B55α; technical repeat 3): 0,812

TOP2A_HUMAN
log2 ratio [Venus-B55/Venus] (Venus-B55; enrichment in Venus-B55 pulldown over Venus control, from 3 replicates each): 1.41
log2 IBAQ [Venus-B55 1] (Venus-B55; pulldown of Venus-B55 from mitotic cells, label-free LC-MS/MS, log2 IBAQ of co-purified protein, replicate 1): 16.03
log2 IBAQ [Venus-B55 2] (Venus-B55; pulldown of Venus-B55 from mitotic cells, label-free LC-MS/MS, log2 IBAQ of co-purified protein, replicate 2): 16.59
log2 IBAQ [Venus-B55 3] (Venus-B55; pulldown of Venus-B55 from mitotic cells, label-free LC-MS/MS, log2 IBAQ of co-purified protein, replicate 3): 15.37
B55 or PP1? (Venus-PP1; assignment of the co-purified protein as interactor of Venus-B55 and/or Venus-PP1 (both pulldowns)): B55/PP1
log2 ratio [Venus-PP1/Venus] (Venus-PP1; enrichment in Venus-PP1 pulldown over Venus control, from 3 replicates each): 4.66
log2 IBAQ [Venus-PP1 1] (Venus-PP1; pulldown of Venus-PP1 from mitotic cells, label-free LC-MS/MS, log2 IBAQ of co-purified protein, replicate 1): 19.15
log2 IBAQ [Venus-PP1 2] (Venus-PP1; pulldown of Venus-PP1 from mitotic cells, label-free LC-MS/MS, log2 IBAQ of co-purified protein, replicate 2): 19.33
log2 IBAQ [Venus-PP1 3] (Venus-PP1; pulldown of Venus-PP1 from mitotic cells, label-free LC-MS/MS, log2 IBAQ of co-purified protein, replicate 3): 21.02
